In brackets after ≈: the same amount, converted by molar mass.
What was measured:
Staphylococcus aureus [1] = test: Antibacterial activity against Staphylococcus aureus; type: functional
Staphylococcus aureus [2] = test: Antibacterial activity against methicillin resistant Staphylococcus aureus; type: functional
[3] = system: Staphylococcus epidermidis; test: Antibacterial activity against Staphylococcus epidermidis; type: functional
Bacillus subtilis = test: Antibacterial activity against Bacillus subtilis; type: functional
Staphylococcus aureus [4] = test: Antibacterial activity against methicillin resistant Staphylococcus aureus 1; type: functional
Staphylococcus aureus [5] = test: Antibacterial activity against methicillin resistant Staphylococcus aureus 3; type: functional
Staphylococcus aureus [6] = test: Antibacterial activity against methicillin resistant Staphylococcus aureus 2; type: functional
[7] = system: Lactobacillus acidophilus; test: Antibacterial activity against Lactobacillus acidophilus; type: functional
Enterococcus faecalis = test: Antibacterial activity against Enterococcus faecalis; type: functional
[8] = system: Yersinia pseudotuberculosis; test: Antibacterial activity against Yersinia pseudotuberculosis; type: functional
Listeria monocytogenes = test: Antibacterial activity against Listeria monocytogenes; type: functional
Klebsiella pneumoniae = test: Antibacterial activity against Klebsiella pneumoniae; type: functional
Bacillus cereus = test: Antibacterial activity against Bacillus cereus; type: functional
Escherichia coli [9] = test: Antibacterial activity against Escherichia coli; type: functional
Pseudomonas aeruginosa [10] = test: Antibacterial activity against Pseudomonas aeruginosa; type: functional
Citrobacter freundii = test: Antibacterial activity against Citrobacter freundii; type: functional
Vibrio cholerae = test: Antibacterial activity against Vibrio cholerae; type: functional
Shigella flexneri = test: Antibacterial activity against Shigella flexneri; type: functional
[11] = Antibacterial activity against Salmonella typhi; type: functional, Salmonella enterica subsp. enterica serovar Typhimurium; details: Salmonella enterica
Salmonella enteritidis = test: Antibacterial activity against Salmonella enteritidis; type: functional, Salmonella enterica subsp. enterica serovar Enteritidis; details: Salmonella enterica
Staphylococcus aureus [12] = test: Potency index, ratio of levofloxacin MIC to test compound MIC for antibacterial activity against fluoroquinolone/methicillin resistant Staphylococcus aureus; type: functional
Staphylococcus aureus [13] = test: Antibacterial activity against fluoroquinolone sensitive Staphylococcus aureus; type: functional
Staphylococcus aureus [14] = test: Antibacterial activity against methicillin susceptible Staphylococcus aureus; type: functional
Streptococcus pneumoniae = test: Antibacterial activity against Streptococcus pneumoniae; type: functional
Staphylococcus aureus [15] = test: Antibacterial activity against methicillin resistant Staphylococcus aureus clinical strain; type: functional
Staphylococcus aureus [16] = test: Antibacterial activity against methicillin resistant Staphylococcus aureus reference strain; type: functional
Pseudomonas aeruginosa [17] = test: Antibacterial activity against quinolone susceptible Pseudomonas aeruginosa; type: functional
Escherichia coli [18] = test: Antibacterial activity against quinolone susceptible Escherichia coli; type: functional

SMILES: O=C(O)c1cn(-c2ccc(F)cc2)c2cc(N3CCN(Cc4nc5cc(Cl)ccc5c(=O)[nH]4)CC3)c(F)cc2c1=O
- MIC (Staphylococcus aureus [1]): 0.125 µg/mL (≈ 0.216 µM)
- MIC (Staphylococcus aureus [2]): 0.125 µg/mL (≈ 0.216 µM)

SMILES: O=C(O)c1cn(-c2ccc(F)cc2)c2cc(N3CCNCC3)c(F)cc2c1=O [SARAFLOXACIN]
- MIC [3]: < 0.125 µg/mL
- MIC (Staphylococcus aureus [1]): < 0.125 µg/mL
- MIC (Bacillus subtilis): < 0.125 µg/mL

SMILES: CCn1cc(C(=O)O)c(=O)c2cc(F)c(N3CCN(Cc4nnc(-c5ccc(OC)cc5)o4)CC3)cc21
- MIC (Staphylococcus aureus [4]): 0.25 µg/mL (≈ 0.493 µM)
- MIC (Staphylococcus aureus [1]): 0.25 µg/mL (≈ 0.493 µM)
- MIC (Staphylococcus aureus [5]): 0.25 µg/mL (≈ 0.493 µM)
- MIC (Staphylococcus aureus [6]): 0.25 µg/mL (≈ 0.493 µM)

SMILES: COc1c(N2C[C@H]3CCCN(C(=O)c4ccccc4)[C@H]3C2)c(F)cc2c(=O)c(C(=O)O)cn(C3CC3)c12
- MIC [7]: < 1.23 µg/mL
- MIC (Enterococcus faecalis): < 1.23 µg/mL
- MIC [8]: < 1.23 µg/mL
- MIC (Listeria monocytogenes): < 1.23 µg/mL
- MIC (Staphylococcus aureus [1]): < 1.23 µg/mL
- MIC (Klebsiella pneumoniae): < 1.23 µg/mL
- MIC (Bacillus cereus): < 1.23 µg/mL
- MIC (Escherichia coli [9]): < 1.23 µg/mL
- MIC (Pseudomonas aeruginosa [10]): < 1.23 µg/mL

SMILES: O=C(O)c1cn(C2CC2)c2cc(N3CCN(CN4c5ccccc5C(=O)N(c5ccc(Br)cc5)C4c4ccccc4)CC3)c(F)cc2c1=O (stereo not drawn)
- MIC (Citrobacter freundii): 0.1 µg/mL (≈ 0.138 µM)
- MIC [3]: 0.1 µg/mL (≈ 0.138 µM)
- MIC (Vibrio cholerae): 0.1 µg/mL (≈ 0.138 µM)
- MIC (Staphylococcus aureus [1]): 0.1 µg/mL (≈ 0.138 µM)
- MIC (Klebsiella pneumoniae): 0.1 µg/mL (≈ 0.138 µM)
- MIC (Shigella flexneri): 0.1 µg/mL (≈ 0.138 µM)
- MIC [11]: 0.1 µg/mL (≈ 0.138 µM)
- MIC (Pseudomonas aeruginosa [10]): 0.1 µg/mL (≈ 0.138 µM)

SMILES: CCOc1cc(OCC)nc(/N=N/N2CCN(c3cc4c(cc3F)c(=O)c(C(=O)C(C(=O)OC)C(=O)OC)cn4C3CC3)CC2)n1
- MIC [3]: 0.015 µg/mL (≈ 0.0235 µM)
- MIC (Staphylococcus aureus [1]): 0.015 µg/mL (≈ 0.0235 µM)
- MIC (Bacillus subtilis): 0.015 µg/mL (≈ 0.0235 µM)

SMILES: CCn1cc(C(=O)O)c(=O)c2cc(F)c(N3CCN(C(=O)CN4C(=O)S/C(=C\c5ccc(N(C)C)cc5)C4=O)CC3)cc21
- MIC (Salmonella enteritidis): 0.25 µg/mL (≈ 0.411 µM)
- MIC (Escherichia coli [9]): 0.25 µg/mL (≈ 0.411 µM)
- MIC (Pseudomonas aeruginosa [10]): 0.25 µg/mL (≈ 0.411 µM)

SMILES: O=C(O)c1cn(-c2ccc(F)cc2)c2cc(N3CCN(C/C(=N/O)c4ccccc4)CC3)c(F)cc2c1=O
- MIC [3]: < 0.125 µg/mL
- MIC (Staphylococcus aureus [1]): < 0.125 µg/mL
- MIC (Bacillus subtilis): < 0.125 µg/mL

SMILES: O=C(O)c1cn(C2CC2)c2cc(N3CCN(Cn4nc(-c5ccccn5)oc4=S)CC3)c(F)cc2c1=O
- MIC (Staphylococcus aureus [1]): 0.031 µg/mL (≈ 0.0593 µM)
- MIC (Bacillus subtilis): 0.031 µg/mL (≈ 0.0593 µM)
- MIC (Escherichia coli [9]): 0.031 µg/mL (≈ 0.0593 µM)
- MIC (Pseudomonas aeruginosa [10]): 0.031 µg/mL (≈ 0.0593 µM)

SMILES: C[C@H]1COc2c(N3C4CCC3CC(O)C4)c(F)cc3c(=O)c(C(=O)O)cn1c23 (stereo partly drawn)
- Ratio (Staphylococcus aureus [12]): 4
- MIC (Staphylococcus aureus [13]): ≤ 0.5 µg/mL

SMILES: COc1c(N2CCNC(C)C2)c(F)cc2c(=O)c(C(=O)O)cn(C3CC3)c12 (stereo not drawn) [GATIFLOXACIN]
- MIC (Staphylococcus aureus [1]): 0.06 µg/mL (≈ 0.16 µM)
- MIC (Staphylococcus aureus [14]): 0.06 µg/mL (≈ 0.16 µM)
- MIC (Streptococcus pneumoniae): 0.06 µg/mL (≈ 0.16 µM)

SMILES: CCn1cc(C(=O)O)c(=O)c2cc(F)c(N3CCN(C(=O)CN4C(=O)S/C(=C\c5ccc(Cl)cc5)C4=O)CC3)cc21
- MIC (Salmonella enteritidis): 0.25 µg/mL (≈ 0.417 µM)
- MIC (Escherichia coli [9]): 0.25 µg/mL (≈ 0.417 µM)
- MIC (Pseudomonas aeruginosa [10]): 0.25 µg/mL (≈ 0.417 µM)

SMILES: CCOc1cc(OCC)nc(/N=N/N2CCN(c3c(F)cc4c(=O)c(C(=O)C(C(C)=O)C(=O)OC)cn(C5CC5)c4c3OC)CC2)n1 (stereo not drawn)
- MIC [3]: 0.015 µg/mL (≈ 0.0229 µM)
- MIC (Staphylococcus aureus [1]): 0.015 µg/mL (≈ 0.0229 µM)
- MIC (Bacillus subtilis): 0.015 µg/mL (≈ 0.0229 µM)

SMILES: CCn1cc(C(=O)O)c(=O)c2cc(F)c(N3CCN(C(=O)CN4C(=O)S/C(=C\c5ccc(OC)cc5)C4=O)CC3)cc21
- MIC (Salmonella enteritidis): 0.25 µg/mL (≈ 0.42 µM)
- MIC (Escherichia coli [9]): 0.25 µg/mL (≈ 0.42 µM)
- MIC (Pseudomonas aeruginosa [10]): 0.25 µg/mL (≈ 0.42 µM)

SMILES: CCn1cc(C(=O)O)c(=O)c2cc(F)c(N3CCN(C(=O)CN4C(=O)S/C(=C\c5ccc(F)cc5)C4=O)CC3)cc21
- MIC (Salmonella enteritidis): 0.25 µg/mL (≈ 0.429 µM)
- MIC (Escherichia coli [9]): 0.25 µg/mL (≈ 0.429 µM)
- MIC (Pseudomonas aeruginosa [10]): 0.25 µg/mL (≈ 0.429 µM)

SMILES: COc1ccc2nc(CN3CCN(c4cc5c(cc4F)c(=O)c(C(=O)O)cn5C4CC4)CC3)[nH]c(=O)c2c1
- MIC (Staphylococcus aureus [1]): 0.016 µg/mL (≈ 0.0308 µM)
- MIC (Staphylococcus aureus [2]): 0.016 µg/mL (≈ 0.0308 µM)

SMILES: COc1ccc2nc(CN3CCN(c4cc5c(cc4F)c(=O)c(C(=O)O)cn5-c4ccc(F)cc4)CC3)[nH]c(=O)c2c1
- MIC (Staphylococcus aureus [1]): 0.125 µg/mL (≈ 0.218 µM)
- MIC (Staphylococcus aureus [2]): 0.125 µg/mL (≈ 0.218 µM)

SMILES: CCn1cc(C(=O)O)c(=O)c2cc(F)c(N3CCN(Cc4nnc(-c5ccccc5Cl)o4)CC3)cc21
- MIC (Staphylococcus aureus [4]): 0.25 µg/mL (≈ 0.488 µM)
- MIC (Staphylococcus aureus [1]): 0.25 µg/mL (≈ 0.488 µM)
- MIC (Staphylococcus aureus [5]): 0.25 µg/mL (≈ 0.488 µM)
- MIC (Staphylococcus aureus [6]): 0.25 µg/mL (≈ 0.488 µM)

SMILES: O=C(O)c1cn(C2CC2)c2cc(N3CCN(Cc4c(O)ccc5ccccc45)CC3)c(F)cc2c1=O
- MIC (Staphylococcus aureus [15]): 0.012 µg/mL (≈ 0.0246 µM)
- MIC (Staphylococcus aureus [16]): 0.012 µg/mL (≈ 0.0246 µM)
- MIC (Klebsiella pneumoniae): 0.012 µg/mL (≈ 0.0246 µM)
- MIC (Escherichia coli [9]): 0.012 µg/mL (≈ 0.0246 µM)
- MIC (Pseudomonas aeruginosa [10]): 0.012 µg/mL (≈ 0.0246 µM)

SMILES: COc1c(N2CCN(C(=O)Cn3cc(CN4C(=O)C(=O)c5cc(F)ccc54)nn3)C(C)C2)c(F)cc2c(=O)c(C(=O)O)cn(C3CC3)c12 (stereo not drawn)
- MIC (Staphylococcus aureus [4]): ≤ 0.03 µg/mL
- MIC (Staphylococcus aureus [1]): ≤ 0.03 µg/mL
- MIC (Staphylococcus aureus [5]): ≤ 0.03 µg/mL
- MIC (Staphylococcus aureus [6]): ≤ 0.03 µg/mL

SMILES: CCn1cc(C(=O)O)c(=O)c2cc(F)c(N3CCN(C(=O)CN4C(=O)S/C(=C\c5ccc(Cl)cc5Cl)C4=O)CC3)cc21
- MIC (Salmonella enteritidis): 0.25 µg/mL (≈ 0.395 µM)
- MIC (Escherichia coli [9]): 0.25 µg/mL (≈ 0.395 µM)
- MIC (Pseudomonas aeruginosa [10]): 0.25 µg/mL (≈ 0.395 µM)

SMILES: CNC1CN(c2c(F)cc3c(=O)c(C(=O)O)cn(-c4cc(N)c(F)cc4CO)c3c2Cl)C1
- MIC (Pseudomonas aeruginosa [17]): 8 ng/mL (≈ 0.0172 µM)
- MIC (Escherichia coli [18]): 8 ng/mL (≈ 0.0172 µM)

Source: ChEMBL document CHEMBL5241092, “The antibacterial activity of fluoroquinolone derivatives: An update (2018-2021)” (2021)
